Data on four molecules can be found in patent publication US4956343A, “Control of insects by Roseotoxin B” (priority 1988, dated 1990).

Series [1] concerns mice. The settings on record: intraperitoneal injection; cited from earlier work.
A further series has as its system silk worm larvae. The following applies: cited from earlier work.
The test system of series [2] is mice. In words: Toxicity to mice by intraperitoneal injection. The settings on record: ratio of lethal doses.
A further series has as its system Heliothis zea. In words: Insecticidal activity, diet incorporation, neonate corn earworm larvae. The series is classed as in vivo. The settings on record: 2.5 ppm in diet; for Mortality: neonate larvae fed 1 week; for Wt. reductions: survivors after 1 week. The method, then: (§1) Insects. Neonate larvae of Heliothis zea and Spodoptera frugiperda were used for all assays. They were obtained from laboratory colonies reared on pinto bean-based diet at 27°±1° C., 40±10% relative humidity, and a 14:10 light:dark photoperiod.
(§2) The diet used to rear the insects was based on a standard pinto bean diet for many species of lepidoptera and contained the following ingredients: 120 g dried pinto beans, 43 g wheat germ, 28 g brewer's yeast, 8 g Vanderzant's vitamin mix, 2.8 g ascorbic acid, 1.75 g methyl paraben, 0.9 g sorbic acid, 12 g agar, 1 ml formaldehyde (38%), 1.5 ml of propionic-phosphoric acid solution (42% propionic acid, 4.2% phosphoric acid), and 550 ml water. All dry diet ingredients (except for the pinto beans) were purchased from U.S. Biochemicals Corp. Before use, the beans were soaked in water until saturated. The agar was added to 250 ml of water and brought to a boil. The other ingredients were blended in a Waring blender until uniformly mixed. The hot agar was added, and blending continued until all ingredients were uniformly mixed.
(§3) The pinto bean-based diet was prepared and added in 5-ml quantities to test tubes. The test tubes were held at 60° C. until chemicals were incorporated to prevent solidification of the diet. The roseotoxin B was added in 125 μl of acetone to the liquid diet upon removal from the water bath to give a final concentration of 250-2.5 ppm. The chemical was incorporated into the diets by blending vigorously with a vortex mixer for 20 sec. Preliminary observations with colored solutions of both water and acetone indicated uniform incorporation by this method. The diets were dispensed into culture plates, and allowed to cool to room temperature. To remove the potentially toxic acetone, the diets were placed in a fume hood for ca. 20 min until slight darkening occurred. The diets were cut into approximately equal sections, and each section was placed into a well of a 24-well immunoassay plate. A single neonate H. zea or S. frugiperda larvae was added to each well. To prevent desiccation of the diet, the plate was covered by a sheet of parafilm, a sheet of cardboard, and the plastic cover. The cover was secured by two rubber bands, and groups of plates were placed in two polyethylene bags held closely by rubber bands. The plates were held under the same conditions used to rear the insects. Mortality was checked at 2, 4, and 7 days, and the surviving larvae were weighed after 7 days. Each chemical set was tested on a total of 40 larvae.
(§4) Mortality values are based on two replicates of ca. 20 insects each, whil
(§5) weight reductions are based on survivors of mortality tests. All chemical
(§6) were incorporated into insect diets, and fed to neonate larvae for 1 week

Another series has as its system Spodoptera frugiperda. Kind of series: Insecticidal activity, diet incorporation, neonate fall armyworm larvae. In kind it is in vivo. The following applies: 2.5 ppm in diet; for Mortality: neonate larvae fed 1 week; for Wt. reductions: survivors after 1 week. The method, then: as §1, §2, §3, §4, §5, §6

The structures appear in SMILES notation. Square brackets hold non-standard residues; d marks the D form. Peptide text beside a SMILES is read from it. dLac(3-vinyl) = C=CC[C@@H](O)C(=O)O; dHica = CC(C)C[C@@H](O)C(=O)O; NMeV = CN[C@H](C(=O)O)C(C)C; NMeA = CN[C@@H](C)C(=O)O; βAla = NCCC(=O)O

In the case of `CC[C@H](C)[C@@H]1NC(=O)[C@@H]2CCCN2C(=O)[C@@H](CC(C)C)OC(=O)CCNC(=O)[C@H](C)N(C)C(=O)[C@H](C(C)C)N(C)C1=O` [Destruxin B] (cyclo([dHica]PI[NMeV][NMeA][βAla])), the “Dose that killed all test mice” value in the series on mice [1] was 16.9 mg/kg. Also, the “Dose causing death by injection” value in the series with silk worm larvae was 0.34 µg/g. In addition, the “Mammalian toxicity relative to roseotoxin B” value with mice [2] was “about 10 times”.
In the series with Heliothis zea, `CC1(C)C(C=C(Cl)Cl)C1C(=O)OCc1cccc(Oc2ccccc2)c1` (centres unmarked) [Permethrin] showed a Mortality of 17% and a Wt. reductions of 81%. Further, in the series on Spodoptera frugiperda, the Mortality worked out at 35% and the Wt. reductions came to 94%.
For `C=CC[C@H]1OC(=O)CCNC(=O)[C@H](C)N(C)C(=O)[C@H](C(C)C)N(C)C(=O)[C@H]([C@@H](C)CC)NC(=O)[C@@H]2CCCN2C1=O` [destruxin A] (cyclo([dLac(3-vinyl)]PI[NMeV][NMeA][βAla])), the “Dose that killed all test mice” value in the series on mice [1] is given as 1.35 mg/kg. In the series with silk worm larvae, the “Dose causing death by injection” value is 0.28 µg/g. The “Mammalian toxicity relative to roseotoxin B” value with mice [2] is listed as “approximately 100 times”.
Consider `CCOC(=O)CC(SP(=S)(OC)OC)C(=O)OCC` (centres unmarked) [Malathion], for which the results for the Mortality in the series with Heliothis zea and in the series on Spodoptera frugiperda were 5.5% and 30%, respectively. Moreover, the figures for the Wt. reductions with Heliothis zea and with Spodoptera frugiperda were 27% and 45%, respectively.
